# Laboratory results as given in patent publication US20120009240A1, “Films for Delivery of a Therapeutic Agent” (priority 2010, published 2012).
# Where a name gives a salt, the structure may show the parent alone.
# Assay: Saturation and payload limits for dip coating a polyester mesh (Parietex monofilament mesh) with bupivacaine HCl solution (FIG. 8)
# Assay type: physicochemical
# Settings: polyester mesh without a polymer film
# Description: Further, it is believed that spraying films on a medical device (e.g., mesh) compared to other conventional methods, such as dip coating, provides increased loading of the therapeutic agent.
# More particularly FIG. 8 illustrates the loading limits for a polyester mesh (Parietex™ monofilament mesh) without a polymer film.
structure (smiles),measurement,setting,value
CCCCN1CCCCC1C(=O)Nc1c(C)cccc1C (centres unmarked) [bupivacaine hydrochloride],saturation and payload limits for dip coating,solution in MeOH,12 % w/v
same,saturation and payload limits for dip coating,solution in water,5 % w/v
